Data taken from ChEMBL document CHEMBL4483862, “Open-source discovery of chemical leads for next-generation chemoprotective antimalarials” (2018).

Tested on: Plasmodium berghei
Assay: Luciferase/luciferin-expressing antifolate-resistant parasites were used to infect a culture of HepG2 cells that were pre-incubated with compounds. Infected hepatocytes emit light due to the luciferase reaction. Assay results are presented as the percent inhibition of light emission compared to control. […]
Assay type: functional
Details: sporozoite; for IC90: read-out: LUCIFERASE INFECTION ASSAY - IC90
[1] = read-out: LUCIFERASE INFECTION ASSAY - IC50

Compound	IC90	further results
C/C(Cn1nnc(-c2ccc(C(F)(F)F)cc2)n1)=N\NC(N)=S	3.45 µM	IC50 (HEPG2TOX_HILL_SLOPE 10.9, HEPG2TOX_R_SQUARED 0.527, PBLUC_HILL_SLOPE 12.4, PBLUC_R_SQUARED 0.37, read-out: LUCIFERASE INFECTION ASSAY - IC50): 2.89 µM
CC(C)Cc1nc2oc3c(NCCO)ncnc3c2c2c1CCCC2	> 9.69 µM	IC50 (PBLUC_HILL_SLOPE 4.31, PBLUC_R_SQUARED 0.188, read-out: LUCIFERASE INFECTION ASSAY - IC50): 6.98 µM
CC(C)c1cccc(Nc2cc3c(cn2)nc(Nc2ccccc2)n3C)c1	> 10 µM	IC50 (PBLUC_HILL_SLOPE 1.87, PBLUC_R_SQUARED 0.0991, read-out: LUCIFERASE INFECTION ASSAY - IC50): > 10 µM
Cc1cc([N+](=O)[O-])cc[n+]1[O-]	> 21.4 µM	IC50 (PBLUC_HILL_SLOPE 2.57, PBLUC_R_SQUARED 0.305, read-out: LUCIFERASE INFECTION ASSAY - IC50): 14.6 µM
Cc1ccc(-n2nc(C)c(C(=O)Nc3ccccc3N3CCN(C)CC3)n2)c(C)c1	> 10 µM	IC50 (HEPG2TOX_HILL_SLOPE 0.399, HEPG2TOX_R_SQUARED 0.0602, read-out: LUCIFERASE INFECTION ASSAY - IC50): > 10 µM
Cc1ccc(-c2nc(-c3ccccc3)nc(N3CCN(C)CC3)c2C#N)cc1	> 8.93 µM	IC50 (HEPG2TOX_HILL_SLOPE 0.407, HEPG2TOX_R_SQUARED 0.712, PBLUC_HILL_SLOPE 0.491, PBLUC_R_SQUARED 0.261, read-out: LUCIFERASE INFECTION ASSAY - IC50): > 8.93 µM
O=c1c2c3c(sc2nc(SCc2nc4ccc(Cl)cc4n2CCO)n1CC1CCCO1)CCC3 (stereo not drawn)	> 10 µM	IC50 (FFLUC_HILL_SLOPE 13.3, FFLUC_R_SQUARED 0.41, read-out: LUCIFERASE INFECTION ASSAY - IC50): > 10 µM
O=C(COC(=O)c1ccc2ccccc2c1)c1cc2c3c(c1)CC(=O)N3CCC2	> 10 µM	IC50 (FFLUC_HILL_SLOPE 2.44, FFLUC_R_SQUARED 0.438, read-out: LUCIFERASE INFECTION ASSAY - IC50): > 10 µM
Cc1ccc(CC2CC(=O)N(C3CCCCC3)C2=O)cc1 (stereo not drawn)	> 11.6 µM	IC50 [1]: > 11.6 µM
COc1ccc(Nc2cc3[nH]c(-c4cccc(C(F)(F)F)c4)cc3cn2)c(C)c1	> 10 µM	IC50 (HEPG2TOX_HILL_SLOPE 8.02, HEPG2TOX_R_SQUARED 0.0629, PBLUC_HILL_SLOPE 11.9, PBLUC_R_SQUARED 0.386, read-out: LUCIFERASE INFECTION ASSAY - IC50): 8.34 µM
CC(C)(C)C1CCc2[nH]c(=O)sc2C1 (stereo not drawn)	1.31 µM	IC50 (HEPG2TOX_HILL_SLOPE 1.45, HEPG2TOX_R_SQUARED 0.907, PBLUC_HILL_SLOPE 17.6, PBLUC_R_SQUARED 0.512, read-out: LUCIFERASE INFECTION ASSAY - IC50): 1.16 µM
CNc1nc2cnc(Nc3ccc(C(F)(F)F)cc3)cc2n1Cc1ccccc1	> 10 µM	IC50 (HEPG2TOX_HILL_SLOPE 3.2, HEPG2TOX_R_SQUARED 0.033, read-out: LUCIFERASE INFECTION ASSAY - IC50): > 10 µM
Cc1cc(C)c(OCC(=O)N2CCCC2c2nc3ccccc3[nH]2)c(C)c1 (stereo not drawn)	> 10 µM	IC50 [1]: > 10 µM
COc1ccc(C(N)c2csc(NC(=O)NC(c3ccccc3)c3ccccc3)n2)cc1 (stereo not drawn)	3.36 µM	IC50 (PBLUC_HILL_SLOPE 167, PBLUC_R_SQUARED 0.12, read-out: LUCIFERASE INFECTION ASSAY - IC50): 3.31 µM
CCn1c(NC(=O)c2[nH]nc3ccccc23)nc2ccccc21	> 10 µM	IC50 (HEPG2TOX_HILL_SLOPE 8.17, HEPG2TOX_R_SQUARED 0.11, PBLUC_HILL_SLOPE 5.04, PBLUC_R_SQUARED 0.686, read-out: LUCIFERASE INFECTION ASSAY - IC50): 7.76 µM
COc1cc(C2NCC(c3ccccc3Cl)c3c2[nH]c2ccccc32)ccc1OCc1cccc(C(F)(F)F)c1 (stereo not drawn)	> 10 µM	IC50 (FFLUC_HILL_SLOPE 97, FFLUC_R_SQUARED 0.0371, HEPG2TOX_HILL_SLOPE 1.2, HEPG2TOX_R_SQUARED 0.293, PBLUC_HILL_SLOPE 8.25, PBLUC_R_SQUARED 0.22, read-out: LUCIFERASE INFECTION ASSAY - IC50): 8.46 µM
O=C(Nc1nc(-c2ccc3c(c2)CCCC3)cs1)c1cnccn1	> 10 µM	IC50 [1]: > 10 µM
CCNC(=S)N/N=C/c1cc(Cl)cc(Cl)c1O	> 11.3 µM	IC50 (PBLUC_HILL_SLOPE 1.17, PBLUC_R_SQUARED 0.411, read-out: LUCIFERASE INFECTION ASSAY - IC50): > 11.3 µM
COc1ccc(-c2cnc3ccc(N[C@H](CO)C(C)C)nn23)cn1	4.4 µM	IC50 (PBLUC_HILL_SLOPE 4.47, PBLUC_R_SQUARED 0.471, read-out: LUCIFERASE INFECTION ASSAY - IC50): 2.69 µM
CCc1ccc2nc(Nc3nc(=O)cc(-c4cccc(OC)c4)[nH]3)nc(C)c2c1	> 8.52 µM	IC50 (HEPG2TOX_HILL_SLOPE 12.4, HEPG2TOX_R_SQUARED 0.848, PBLUC_HILL_SLOPE 2.25, PBLUC_R_SQUARED 0.429, read-out: LUCIFERASE INFECTION ASSAY - IC50): 5.68 µM

Compound	IC90	further results
O=S(=O)(Nc1ccc(C(F)(F)F)cc1)c1ccc(S(=O)(=O)c2ncc(C(F)(F)F)cc2Cl)s1	> 5.99 µM	IC50 (FFLUC_HILL_SLOPE 15.7, FFLUC_R_SQUARED 0.198, HEPG2TOX_HILL_SLOPE 0.681, HEPG2TOX_R_SQUARED 0.155, read-out: LUCIFERASE INFECTION ASSAY - IC50): > 5.99 µM
COc1cc(NC(=O)Nc2cc(Cl)cc(Cl)c2)cc(C(F)(F)F)c1	0.748 µM	IC50 (HEPG2TOX_HILL_SLOPE 3.42, HEPG2TOX_R_SQUARED 0.986, PBLUC_HILL_SLOPE 0.84, PBLUC_R_SQUARED 0.7, read-out: LUCIFERASE INFECTION ASSAY - IC50): 0.0547 µM
O=S(=O)(Nc1cccc(C(F)(F)F)c1)c1c(F)c(Br)cc(F)c1Br	> 6.67 µM	IC50 (PBLUC_HILL_SLOPE 1.15, PBLUC_R_SQUARED 0.311, read-out: LUCIFERASE INFECTION ASSAY - IC50): > 6.67 µM
Cc1cc(C(=O)COC(=O)c2ccccc2N/C=C/C(=O)C(F)(F)F)c(C)n1CC1CCCO1 (stereo not drawn)	> 10 µM	IC50 (FFLUC_HILL_SLOPE 1.17, FFLUC_R_SQUARED 0.844, PBLUC_HILL_SLOPE 1.67, PBLUC_R_SQUARED 0.404, read-out: LUCIFERASE INFECTION ASSAY - IC50): 3.35 µM
O=C(NC1CCCc2ccccc21)c1oc2ccccc2c1CSc1nccs1 (stereo not drawn)	> 10 µM	IC50 [1]: 6.48 µM
COc1ccc(C)cc1NC(=O)c1ccc(NC(=O)Nc2ccccc2)s1	> 10 µM	IC50 (PBLUC_HILL_SLOPE 2.41, PBLUC_R_SQUARED 0.229, read-out: LUCIFERASE INFECTION ASSAY - IC50): 7.11 µM
CNC(=O)c1ccc(S(=O)(=O)Nc2cccc(-c3nnnn3C)c2)cc1	> 10 µM	IC50 [1]: > 10 µM
CN(C)c1ccc(/C=C/c2ccc3ccccc3[n+]2C)cc1	2.35 µM	IC50 (HEPG2TOX_HILL_SLOPE 1.22, HEPG2TOX_R_SQUARED 0.944, PBLUC_HILL_SLOPE 2.39, PBLUC_R_SQUARED 0.798, read-out: LUCIFERASE INFECTION ASSAY - IC50): 0.935 µM
CCn1nc(C)c([N+](=O)[O-])c1C(=O)Sc1cccc(Br)c1	> 8.91 µM	IC50 [1]: > 8.91 µM
CN(C)c1ccc(-c2ccc3nnc(-c4ccccc4)n3c2)cc1	4.59 µM	IC50 (HEPG2TOX_HILL_SLOPE 1.89, HEPG2TOX_R_SQUARED 0.955, PBLUC_HILL_SLOPE 2.66, PBLUC_R_SQUARED 0.575, read-out: LUCIFERASE INFECTION ASSAY - IC50): 2.01 µM
CC1CC1c1ccc(/C=C2\C(=O)Nc3cc(Cl)ccc32)o1 (stereo not drawn)	> 10 µM	IC50 (HEPG2TOX_HILL_SLOPE 10.3, HEPG2TOX_R_SQUARED 0.792, PBLUC_HILL_SLOPE 17.7, PBLUC_R_SQUARED 0.192, read-out: LUCIFERASE INFECTION ASSAY - IC50): 9.66 µM
Cc1nc(C(F)(F)F)nc(NCc2ccc(Cl)cc2)c1C	> 10.5 µM	IC50 (PBLUC_HILL_SLOPE 1.61, PBLUC_R_SQUARED 0.626, read-out: LUCIFERASE INFECTION ASSAY - IC50): 3.42 µM
O=C(Nc1cccc(C(F)(F)F)c1)Nc1ccccc1Sc1c(Cl)cncc1Cl	> 7.2 µM	IC50 (HEPG2TOX_HILL_SLOPE 7.44, HEPG2TOX_R_SQUARED 0.649, PBLUC_HILL_SLOPE 2.82, PBLUC_R_SQUARED 0.349, read-out: LUCIFERASE INFECTION ASSAY - IC50): 4.94 µM
COCCNc1ccnc2c(-c3ccccc3Oc3ccccc3)cnn12	> 9.16 µM	IC50 (FFLUC_HILL_SLOPE 3.47, FFLUC_R_SQUARED 0.0365, PBLUC_HILL_SLOPE 0.975, PBLUC_R_SQUARED 0.706, read-out: LUCIFERASE INFECTION ASSAY - IC50): 3.91 µM
CCc1[nH]c(=O)c(C#N)c(-c2ccccc2)c1C(=O)OC	> 11.7 µM	IC50 [1]: > 11.7 µM
CC(=O)Nc1ccc(-c2cnc3ccc(-c4cccc(Oc5ccccc5)c4)nn23)cc1	3.35 µM	IC50 (HEPG2TOX_HILL_SLOPE 2.48, HEPG2TOX_R_SQUARED 0.914, PBLUC_HILL_SLOPE 2.88, PBLUC_R_SQUARED 0.663, read-out: LUCIFERASE INFECTION ASSAY - IC50): 1.56 µM
Cc1c(C(=O)Nc2cccc(Oc3ccccc3)c2)sc(=O)n1Cc1ccncc1	> 7.9 µM	IC50 [1]: > 7.9 µM
COc1ccc(OC)c(/C=c2\s/c(=C(/C#N)c3nnc4n3CCCCC4)n(-c3ccccc3)c2=O)c1	> 10 µM	IC50 (PBLUC_HILL_SLOPE 2.48, PBLUC_R_SQUARED 0.654, read-out: LUCIFERASE INFECTION ASSAY - IC50): 4.74 µM
Cn1ccc2cc(-c3cnc4cnc(-c5ccc(C(=O)N6CCOCC6)cc5)cn34)ccc21	> 7.54 µM	IC50 (HEPG2TOX_HILL_SLOPE 0.0832, HEPG2TOX_R_SQUARED 0.45, PBLUC_HILL_SLOPE 3.74, PBLUC_R_SQUARED 0.552, read-out: LUCIFERASE INFECTION ASSAY - IC50): 5.41 µM
